The values below are quoted from earlier work in article PMC7259638, “Characterization of the intestinal absorption of morroniside from Cornus officinalis Sieb. et Zucc via a Caco-2 cell monolayer model” (PLoS ONE, 2020).

This data set deals with Caco-2 cell model. Further details: method as in PMID 30671130. The note with it: cited from earlier work.

For the compound `COC(=O)C1=CO[C@@H](O[C@@H]2O[C@H](CO)[C@@H](O)[C@H](O)[C@H]2O)[C@@H]2[C@@H](C)[C@@H](O)C[C@H]12` [loganin], the “intestinal permeability (in words)” value (human intestinal Caco-2 cell model) is recorded as “good intestinal permeability”. The BCRP substrate status result (previous study) was “substrate of BCRP”.
